Test results published in ChEMBL document CHEMBL3507680, “University of Dundee, Gates Library screen for HepG2 cell viability”.

Experiment: Human HepG2 cell viability assay in 384 well format
Assay type: toxicity, cell-based
Set-up: dose 125 nL, time 70.5 hour; concentration not given beside the values
Details: HepG2 cells, read-out: Inhibition

| SMILES | cytotoxicity at 70.5 h |
| --- | --- |
| Cn1c(=O)[nH]c2cc(C(=O)OCC(F)F)ccc21 | 19.9% |
| CN(C)c1ccnc(-c2ccnc3c2ccn3C)n1 | -5.41% |
| Cc1nnc(NCc2cccnc2OCC(F)(F)F)c(C#N)c1C | -0.691% |
| Cc1cc(CC(C)NC2CCSCC2)[nH]n1 (stereo unspecified) | -5.1% |
| COc1cccc(-c2nccnc2C2CCN(C(C)=O)CC2)c1 | -8.61% |
| Fc1ccccc1NCc1nc2n(n1)CCCCC2 | -19.3% |
| CCn1cc(CN2CCCN(C(=O)CCSC)CC2)cn1 | -1.89% |
| Cc1cnn(CCNCc2ccc(OCc3cccnc3)cc2)c1 | -4.14% |
| CCn1ncnc1CN1CCC(CNC(=O)c2cccc(C)c2)C1 (stereo unspecified) | -15.4% |
| CCCOc1ccc(CC2=NC(C)(CO)CO2)cc1 (stereo unspecified) | 12% |
| CSCC[C@@H](CO)n1ccnc1-c1ccc(C)o1 | 0.0887% |
| C=C(C)CN1CCCC1c1nc(Cc2ccc(F)cc2)no1 (stereo unspecified) | 12.4% |
| COC[C@@]12CCO[C@@H]1CCN(C(=O)Cc1ccccc1C)C2 | -3.36% |
| CCn1c(C)cc(C(=O)N2CCCC(n3nc(C)nc3C)C2)c1C (stereo unspecified) | -7.33% |
| O=C(O)[C@@H]1CN(C2CCCC2)C[C@H]1C1CC1 | -8.02% |
| CSCC(C)(O)CNS(=O)(=O)Cc1ccc(F)cc1 (stereo unspecified) | -11.7% |
| O=c1[nH]c(NC2CCCC2)nc2nccc(-c3ccsc3)c12 | -4.5% |
| O=C1CC(c2ccc3ccccc3n2)c2c(n[nH]c2C2CCC2)N1 (stereo unspecified) | 19.5% |
| CN(C)C(=O)c1cc(-c2ccc(S(C)(=O)=O)cc2)c2cnn(C)c2n1 | -7.12% |
| O=C(c1ccccn1)N1CCc2nc(-c3cnccn3)nc(O)c2C1 | -3.62% |
| O=C(c1cccc(Cl)c1)N1CC[C@@H](N2CCC(O)CC2)[C@H](O)C1 | 16% |
| c1cnc2nc(N3CCCC3c3nnc4n3CCCCC4)ccc2n1 (stereo unspecified) | -4.33% |
| COC(=O)N1CCCCC1C(=O)N1CCCN(c2ccnc(C)c2)CC1 (stereo unspecified) | -7.79% |
| NCC1(c2cccc(F)c2)CCOCC1 | 19.1% |

| SMILES | cytotoxicity at 70.5 h |
| --- | --- |
| Cc1cnn(CC2CCCCN2C(=O)c2cc(C(N)=O)cs2)c1 (stereo unspecified) | 28.2% |
| CCC1CCC(N(Cc2cc(=O)n(C)c(=O)n2C)C2CC2)CC1 (stereo unspecified) | -5.27% |
| Cn1ncc(C(=O)N2CCN(S(C)(=O)=O)CC2)c1Cl | 20.9% |
| Cc1nn(C)c(C)c1NC(=O)CCn1ncc2ccc(Cl)cc21 | -11.9% |
| COc1cc(C(C)=O)ccc1SCC(=O)Nc1cccc(C)n1 | -19.2% |
| Cc1cccc(CN2C[C@@H]3OCCN(CC(=O)N(C)C)[C@@H]3C2)c1 | -8.16% |
| COCc1nc(C(=O)N2CCCC(n3ccnc3C)C2)cs1 (stereo unspecified) | -18.6% |
| CN(CCc1ccccn1)C(=O)C(O)c1ccc(Br)cc1 (stereo unspecified) | -4.38% |
| Cc1nc(C2CCCN2CC(=O)NCCOc2ccc(F)cc2)no1 (stereo unspecified) | 47.6% |
| Cc1nccc(CNS(=O)(=O)N2CCCC2c2ccc(C)o2)n1 (stereo unspecified) | -9.86% |
| CNc1cc(C)nc(N2CCC3(CC2)[C@H](O)C[C@@H]3OC)n1 | -2.45% |
| CCCn1ccc2cc(NC(=O)NCCn3cnnc3CC)ccc21 | -9.53% |
| CS(=O)(=O)c1cccc(S(=O)(=O)NC(=O)CC2CCCC2)c1 | -3.3% |
| COc1c(C)cnc(CN(C)C2CCOC3(CCOCC3)C2)c1C (stereo unspecified) | -19.1% |
| O=C(NC1CC1)c1cccc(Oc2ccc3nncn3n2)c1 | -4.61% |
| Cc1cccc(OCCC(=O)N(C)CC(C)C#N)c1C (stereo unspecified) | 19.7% |
| Cc1cccc(COC[C@@]23CCC[C@@H]2CN(C(=O)Cc2ccco2)C3)n1 | -8.53% |
| O=C(Cc1ccc2c(c1)CCC2)NCCNc1ncccn1 | 10.9% |
| CCOCc1nn(C)c2c1CN(C(=O)c1ccno1)CC2 | -4.99% |
| Cc1cnn(C2CN(c3ccccc3S(=O)(=O)C(F)(F)F)C2)c1 | 1.3% |
| Cc1cnc(N2C(=O)CSC2c2ccccc2)s1 (stereo unspecified) | -9.48% |
| COc1ccc(CN2CC[C@H](NC(C)=O)[C@@H](O)CC2)c(OC)c1 | -17.2% |
| Cc1cnc(-c2nc(O)c3c(n2)CN(C(=O)C2CCCC2)CC3)cn1 | -1.77% |
| COCCOCCNC(=O)N1CCN(c2ccccc2C#N)CC1 | -2.61% |

| SMILES | cytotoxicity at 70.5 h |
| --- | --- |
| CC(C)n1[nH]c(=O)c2c1NC(=O)CC2c1cccc2cccnc12 (stereo unspecified) | 15.8% |
| COc1ncccc1CNCc1cnc(N2CCOCC2)nc1 | -9.23% |
| CCN(CC)C(=O)Nc1cccc(Oc2ccccn2)c1 | 20.3% |
| CNC(=O)c1ccc(S(=O)(=O)NCc2cccnc2N(C)C)cc1 | -6.39% |
| Cc1ccc(NCCNC(=O)c2cc(CC(C)C)n[nH]2)nn1 | 4.32% |
| CC(=O)N1CCC(CSCc2ccco2)CC1 | 12.9% |
| Cc1cccc2c(CCNC(=O)[C@H](N)c3ccccc3)c[nH]c12 | -17.6% |
| CCN(CC1CCOC1)C(=O)c1ccccc1S(C)(=O)=O (stereo unspecified) | -4.17% |
| O=C(NCCOc1ncc(Cl)cc1Cl)NCc1ccncc1 | -1.68% |
| Cc1c(-c2cc(-c3cnn(C)c3C)n(CC(=O)NC3CC3)n2)cnn1C | 19.6% |
| Cc1occc1C(=O)N1C[C@@H]2OCCN(c3ncccn3)[C@@H]2C1 | -11.6% |
| Cc1nc2c(c(N(C)Cc3ccccc3-n3cccn3)n1)CCNCC2 | 26.5% |
| Cc1cc(C)nc(C2CCN(C(=O)c3c(C)noc3C)C2)n1 (stereo unspecified) | -3.76% |
| CSCc1cccc(S(=O)(=O)NCCCN2CCOCC2)c1 | -6.88% |
| CC(C(=O)NCc1cccc(N2CCCC2=O)c1)S(C)(=O)=O (stereo unspecified) | 0.0426% |
| CCOc1ccc2[nH]c(=O)c(CN3CCCCC3C)cc2c1 (stereo unspecified) | -3.42% |
| Cc1ccc(C(=O)N2CCC3(CC2)C(=O)NCCN3C)cc1O | -6.34% |
| O=C1CCC(C(=O)Nc2cnn(-c3ccccc3Cl)c2)N1 (stereo unspecified) | -9.74% |
| CC(C)=CCN1CCc2onc(-c3ccc(F)c(F)c3)c2C1 | -11.7% |
| Cc1nc(CN2C(=O)C[C@H]3[C@H]2CCN3C2CCOC2)cs1 (stereo partly specified) | 28.1% |
| CC(C)=CCC1(CO)CCCN(S(C)(=O)=O)C1 (stereo unspecified) | 1.79% |
| O=C(Cc1ccc2c(c1)OCCO2)NC1CC1 | 0.821% |
| O=C(Nc1ccc(CC(=O)N2CCSCC2)cc1)NC1CC1 | 14.5% |
| O=C(COC1CCCC1)NCCc1noc(-c2ccccn2)n1 | -5.96% |

| SMILES | cytotoxicity at 70.5 h |
| --- | --- |
| CC(=O)N(Cc1ncc(C(C)C)o1)C1CCN(CCC#N)C1 (stereo unspecified) | -7% |
| N#Cc1cccc(CN2CCn3cc(Cn4cccn4)nc3C2)c1 | -16% |
| CNS(=O)(=O)CCn1cc(-c2cc3c(cc2OC)CCC3)nn1 | -7.97% |
| CCC1CCCCN1S(=O)(=O)c1c(N)noc1C (stereo unspecified) | -2.36% |
| CC(C)(CO)Nc1cc(-c2ccncc2)ncn1 | -2.83% |
| COCC1CN(Cc2ccc(OC)cc2)Cc2nn(C)cc21 (stereo unspecified) | 8.65% |
| COc1c(C)cnc(CNC(=O)CCOCC(C)C)c1C | -4.31% |
| Cc1nc(CN(C)C2CCCN(c3cccnn3)C2)no1 (stereo unspecified) | 17.1% |
| CCN1CC2(CCN(C(=O)C3CSC(C)(C)C(=O)N3)CC2)CC1=O (stereo unspecified) | -6.11% |
| CNS(=O)(=O)c1ccc(C(=O)N2CCCC2c2ccncc2)o1 (stereo unspecified) | -2.81% |
| COc1cc2c(c(OC)c1OC)CCN(CCn1cncn1)CC2 | -8.44% |
| Cc1cccc(CN2CCN(C(=O)c3cccnc3O)CC2)c1 | -4.88% |
| COC(=O)CC1c2cccnc2C(=O)N1Cc1ccccc1 (stereo unspecified) | -3.32% |
| CN1CCC(Cc2nc(-c3cnccn3)n(Cc3ccccc3)n2)CC1 | -4.63% |
| CN(CC(=O)N1CCOC(CCc2ccccc2)C1)Cc1ccccn1 (stereo unspecified) | -7.68% |
| CCCNC(=O)c1cc2c(s1)CCN2C(=O)c1ccccc1 | 14.2% |
| O=C1CC(NS(=O)(=O)c2ccccc2)CN1Cc1ccccc1 (stereo unspecified) | -5.96% |
| CN(C)C[C@@H]1CN(Cc2ccccc2C#N)C[C@@H]1CO | 2.25% |
| CS(=O)(=O)CCNC1CCCN(Cc2noc(C3CC3)n2)C1 (stereo unspecified) | -13.7% |
| COCCC(=O)N1CCC(c2ccc3c(NC(C)C)n[nH]c3n2)C1 (stereo unspecified) | -6.39% |
| COCC1Cn2nnc(-c3cnn(C)c3)c2CN1Cc1ccsc1 (stereo unspecified) | -9.05% |
| O=C(c1cnc2ccc(Cl)cc2c1NCc1ccco1)N1CCCCC1 | 23.3% |
| Cc1cc(N2CCCN(C(=O)Cc3csc(C)n3)CC2)ccn1 | -12.4% |
| CC(C)C(=O)N1CCc2nc(C(=O)Nc3cccnc3)sc2CC1 | -2.65% |

| SMILES | cytotoxicity at 70.5 h |
| --- | --- |
| Cc1cccc(CN2C[C@@H]3CN(C(=O)c4ccco4)C[C@@H]3C2=O)c1 | -1.41% |
| CC1(CCNC(=O)NCc2ccsc2)OCCO1 | -6.29% |
| O=C(CCNC(=O)NC1CCN(C2CC2)CC1)NCc1ccccc1 | -3.29% |
| Cc1cnn(CC(C)Nc2cnc3ccccc3n2)c1 (stereo unspecified) | 4.57% |
| CC1(C)CNC(=O)c2nc(-c3n[nH]c(=O)[nH]3)[nH]c2C1 | -5.75% |
| COc1ccc(Cc2nnc(SC)o2)cc1OC | -2.03% |
| CN(C)S(=O)(=O)N1CC(c2nc(-c3ccsc3)no2)C1 | -6.06% |
| COCCNC(=O)C1CN(Cc2cccc(C)n2)Cc2ccnn2C1 (stereo unspecified) | -5.1% |
| CNc1ncc(CN(C)C(=O)CCc2cc3n(n2)CCCNC3)cn1 | -9.14% |
| CCn1ccnc1CN1CCN(CCOc2ccccc2C#N)CC1 | -19.6% |
| NCc1cn(CC2CCCN(C(=O)NCCc3ccc(F)cc3)C2)nn1 (stereo unspecified) | 22.7% |
| O=C(CCn1cccn1)N1CCN(CC(F)F)CC1 | -1.77% |
| Cc1cc(C(=O)NCC2CCC3(CC2)OCCO3)[nH]n1 | 1.56% |
| Cc1cc(NS(=O)(=O)c2ccccc2F)ccc1-n1cccc1C(=O)O | -1.31% |
| Cc1ccccc1CN1CCC(c2nn(CCN)c3nccnc23)C1 (stereo unspecified) | -0.306% |
| CC(Cc1cccc(F)c1)C(=O)NS(=O)(=O)c1ccc(F)cc1 (stereo unspecified) | 11.8% |
| O=C(NC[C@H]1OC[C@@H](NCc2ccccc2)[C@@H]1O)Nc1ccc(F)cc1 | -4.13% |
| COc1cc(NC(=O)c2ccc(C)c(F)c2)c(C(=O)N(C)C)cc1OC | -12.5% |
| O=S1(=O)CCN2C(=N1)Oc1ccc(Cl)cc12 | 23.7% |
| COc1cc(N2C[C@@H]3COC[C@]3(COCc3cccc(C)n3)C2)ncn1 | -0.577% |
